Here are results for three compounds from patent US6123964A, “Wet granulation formulation of a growth hormone secretagogue” (priority 1998, dated 2000).

Structures are written as SMILES. Counter-ions that a name gives are not always drawn.

The nature of one series: physchem. It counts as physicochemical. The following applies: solid state, initial compound present. On the procedure: As a mimic of the tablet formulation process, a concentrated solution of N-[1(R)-[(1,2-dihydro-1-methanesulfonylspiro[3H-indole-3,4'-piperdin]-1'-yl)carbonyl]-2-(phenylmethyloxy)ethyl]-2-amino-2-methylpropanamide methanesulfonate (118 mg) in 120 μL 25% aqueous ethanol (980 mg/ml) was evaporated at 40° C. to give a solid. The lack of crystallinity was confirmed by X-ray analysis.
After 12 weeks at 40° C., 100% of the initial compound was present; after 12 weeks at 60° C., 99.7% of the initial compound was present; after 12 weeks at 80° C., 97.8% of the initial compound was present.

Series [1] can be described thus: Hygroscopicity of wet crystals. The format is physicochemical. The conditions noted are these: wet crystals during filtration. As to the method:
The volume of the solution of 15 from the previous step was adjusted to 60 L with ethyl acetate and EtOH (4.8 L) was added. The MsOH (316 mL) was added in 3 L of EtOAc at 45° C. To the deep red homogeneous solution was added 496 g of the title compound Form I seed (10% seed based on the weight of the free amine was employed). The temperature rose to ca. 48° C. and the reaction was aged at 52° C. for 1.5 hours. Analysis indicated complete conversion to the title compound (Form I). (At less than 10% seed longer age (>3 hours) was required). The slurry was allowed to cool to 20° C. overnight and was filtered in a centrifuge under N2. The cake was washed with 20 L of 8% EtOH in EtOAc. […] The batch was dried at 35° C. under vacuum to afford 2.7Kg (56% overall yield) of the title compound (Form I) (99.9 A % purity; <0.1% enantiomer).

For a further series, the system named is growth hormone. The series can be described thus: Growth hormone secretagogue assay described by Smith, et al., Science, 260, 1640-1643 (1993). It counts as cell-based. The following applies: assay of Smith et al., Science 1993. An excerpt:
Such a result is indicative of the activity of the formulation of the present invention as a growth hormone secretagogue.

Series [2] can be described thus: Flow properties of bulk drug. It counts as physicochemical. The following applies: as a bulk drug.
Series [3] in a line: Stability of the compound in standard pharmaceutical formulations. The format is physicochemical.

Usually fraction remaining stands for the share of the starting amount still present when the sample was taken. Low readings indicate more turnover, high ones less turnover. For the compound `CC(C)(N)C(=O)N[C@H](COCc1ccccc1)C(=O)N1CCC2(CC1)CN(S(C)(=O)=O)c1ccccc12` [amorphous form, N-[1(R)-[(1,2-dihydro-1-methanesulfonylspiro[3H-indole-3,4'-piperdin]-1'-yl)carbonyl]-2-(phenylmethyloxy)ethyl]-2-amino-2-methylpropanamide methanesulfonate], the fraction remaining at 2016 h in the series “physchem” was 100%.

Regarding `CC(C)(N)C(=O)N[C@H](COCc1ccccc1)C(=O)N1CCC2(CC1)CN(S(C)(=O)=O)c1ccccc12` [Compound 16, N-[1(R)-[(1,2-Dihydro-1-methanesulfonylspiro[3H-indole-3,4'-piperdin]-1'-yl)carbonyl]-2-(phenylmethyloxy)ethyl]-2-amino-2-methylpropanamide mesylate], in series [1], the hygroscopicity result is “very hygroscopic”.

For `CC(C)(N)C(=O)N[C@H](COCc1ccccc1)C(=O)N1CCC2(CC1)CN(S(C)(=O)=O)c1ccccc12` [active ingredient, N-[1(R)-[(1,2-dihydro-1-methane-sulfonyl-spiro[3H-indole-3,4'-piperdin]-1'-yl)carbonyl)-2-(phenyl-methyl-oxy)ethyl]-2-amino-2-methyl-propanamide], in the series on growth hormone, the “activity as a growth hormone secretagogue” value is reported as “had activity as a growth hormone secretagogue”. In series [2], the flow properties result was “poor flow properties”. In series [3], the “stability in standard pharmaceutical formulations” value is “relatively unstable”.
